Source: patent USRE48461E1, “Modulation of androgen receptor expression” (Ionis Pharmaceuticals, Inc., priority 2012, dated 2021)
pIC50: −log10 of the molar value. Oligonucleotides are written 5' to 3', each unit as a sugar letter and its base; * is a phosphorothioate linkage, no mark a phosphodiester; rarer units and linkages stand in square brackets, end groups in braces. Plain capitals give the bases only. e = 2'-O-(2-methoxyethyl) (MOE); k = constrained ethyl (cEt); [5mC] = 5-methylcytosine; d = 2'-deoxy (DNA)

Experiments:
[1] = test system: AR mRNA; experiment: Dose-dependent antisense inhibition of human AR in HuVEC cells (electroporation, qRT-PCR RTS3559, IC50); format: cell-based; details: HuVEC
In short: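 HuVEC cells dosed with antisense oligonucleotides by electroporation and treated approximately 16 hours. AR mRNA quantified by real-time qPCR with primer probe set RTS3559 and normalised to total RNA by RIBOGREEN; IC50 from dose-response.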

[2] = test system: AR mRNA; experiment: Antisense inhibition of human AR in HuVEC cells, single concentration (electroporation, qRT-PCR RTS3559); format: cell-based; details: electroporation, approximately 24 hours, relative to untreated control
In short: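 HuVEC cells electroporated with antisense oligonucleotides at a single concentration. AR mRNA quantified by qRT-PCR using human primer-probe set RTS3559 and normalised to total RNA content by RIBOGREEN.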

[3] = test system: AR mRNA; experiment: AR mRNA in liver, heart, skeletal muscle, kidney, prostate of cynomolgus monkeys; format: in vivo; details: cynomolgus monkey, 40 mg/kg subcutaneously; for Percent Inhibition of AR mRNA relative to the PBS control, Heart: weeks 1 to 6, Heart; for Percent Inhibition of AR mRNA relative to the PBS control, Kidney: weeks 1 to 6, Kidney; for Percent Inhibition of AR mRNA relative to the PBS control, Liver: weeks 1 to 6, Liver; for Percent Inhibition of AR mRNA relative to the PBS control, Prostate: weeks 1 to 6, Prostate; for Percent Inhibition of AR mRNA relative to the PBS control, Skeletal Muscle: weeks 1 to 6, Skeletal Muscle
Procedure: Cynomolgus monkeys were treated with ISIS antisense oligonucleotides selected from studies described above. Antisense oligonucleotide efficacy and tolerability were evaluated. The human antisense oligonucleotides tested are cross-reactive with the rhesus genomic sequence (GENBANK Accession No. NW_001218131.1 truncated from nucleotides 134001 to 308000 and designated herein as SEQ ID NO: 189). The target start site and target region of each oligonucleotide to SEQ ID NO: 189, as well as the details of their chemistry and sequence, is presented in Table 133.
RNA was extracted from liver, heart, skeletal muscle, kidney, and prostate tissues for real-time PCR analysis of AR using primer probe set RTS3559. The results were normalized to RIBOGREEN®. Results are presented as percent inhibition of AR mRNA, relative to PBS control.

[4] = test system: AR mRNA; experiment: AR mRNA in LnCaP cells by free uptake (hAR_LTS00943); format: cell-based, human; details: 24 hrs
Procedure: Cells were plated at a concentration of 4,000 cells/well in 96-well plates. ISIS oligonucleotides, specified in Table 68, were added individually at 0.02 μM, 0.10 μM, 0.50 μM, 2.50 μM, or 10.00 μM. After an incubation period of 24 hrs, mRNA levels were measured using primer probe set hAR_LTS00943.

[5] = Table 35, electroporation, approximately 16 hours
[6] = Table 24, 1,000 nM oligonucleotide
[7] = Table 36, electroporation, approximately 16 hours
[8] = Table 33, electroporation, approximately 16 hours

Substance | percent inhibition of AR, 46.9 nM [1, 5] [%] | percent inhibition of AR, 187.5 nM [1, 5] [%] | percent inhibition of AR, 750.0 nM [1, 5] [%] | percent inhibition of AR, 3000.0 nM [1, 5] [%] | pIC50 [1, 5] | % inhibition [2, 6] [%] | Percent Inhibition of AR mRNA relative to the PBS control, Heart [3] [%] | Percent Inhibition of AR mRNA relative to the PBS control, Kidney [3] [%] | Percent Inhibition of AR mRNA relative to the PBS control, Liver [3] [%] | Percent Inhibition of AR mRNA relative to the PBS control, Prostate [3] [%] | Percent Inhibition of AR mRNA relative to the PBS control, Skeletal Muscle [3] [%] | Percent inhibition of AR mRNA ([4]; 0.02 μM) [%] | Percent inhibition of AR mRNA ([4]; 0.1 μM) [%] | Percent inhibition of AR mRNA ([4]; 0.5 μM) [%] | Percent inhibition of AR mRNA ([4]; 10 μM) [%] | percent inhibition of AR, 46.9 nM [1, 7] [%] | percent inhibition of AR, 187.5 nM [1, 7] [%] | percent inhibition of AR, 750.0 nM [1, 7] [%] | percent inhibition of AR, 3000.0 nM [1, 7] [%] | pIC50 [1, 7] | further results
584163 (kG*kA*kA*d[5mC]*dA*dT*dT*dA*dT*dT*dA*dG*dG*k[5mC]*kT*kA) [compound 584163] | 19 | 37 | 74 | 90 | 6.60 | 81 | 53 | 90 | 98 | 58 | 73 | 0 | 0 | 19 | 70 |  |  |  |  |  | 
579671 (antisense eT*kT*kG*eA*kT*kT*dT*dA*dA*dT*dG*dG*dT*kT*kG*k[5mC]) [compound 579671] |  |  |  |  |  |  | 24 | 53 | 33 |  | 31 | 15 | 0 | 19 | 71 |  |  |  |  |  | percent inhibition of AR ([1]; 62.5 nM, ~16 h, Table 11): 6%; percent inhibition of AR ([1]; 125.0 nM, ~16 h, Table 11): 40%; percent inhibition of AR ([1]; 500.0 nM, ~16 h, Table 11): 57%; percent inhibition of AR ([1]; 1000.0 nM, ~16 h, Table 11): 77%; pIC50 ([1]; ~16 h, Table 11): 6.54
584468 (k[5mC]*kA*kT*dT*dG*dT*dA*d[5mC]*dT*dA*dT*dG*d[5mC]*k[5mC]*kA*kG) [compound 584468] |  |  |  |  |  |  | 33 | 88 | 97 | 50 | 53 | 0 | 0 | 10 | 73 | 9 | 26 | 60 | 90 | 6.43 | % inhibition ([2]; Table 27, 1,000 nM oligonucleotide): 64%
584269 (k[5mC]*k[5mC]*kT*dT*dA*dT*dG*dG*dA*dT*dG*d[5mC]*dT*kG*k[5mC]*kT) [compound 584269] |  |  |  |  |  |  | 72 | 92 | 96 | 41 | 76 | 0 | 0 | 0 | 23 | 6 | 26 | 69 | 92 | 6.47 | % inhibition ([2]; Table 25, 1,000 nM oligonucleotide): 57%
584149 (kG*kT*k[5mC]*dA*dA*dT*dA*dT*d[5mC]*dA*dA*dA*dG*k[5mC]*kA*k[5mC]) [compound 584149] | 11 | 37 | 68 | 89 | 6.51 | 85 | 33 | 77 | 93 | 45 | 63 | 0 | 0 | 0 | 39 |  |  |  |  |  | 
583918 (kA*kG*kT*d[5mC]*dG*d[5mC]*dG*dA*d[5mC]*dT*d[5mC]*dT*dG*kG*kT*kA) [compound 583918] |  |  |  |  |  |  | 76 | 73 | 88 | 58 | 74 | 8 | 0 | 0 | 13 |  |  |  |  |  | percent inhibition of AR, 46.9 nM [1, 8]: 16%; percent inhibition of AR, 187.5 nM [1, 8]: 47%; percent inhibition of AR, 750.0 nM [1, 8]: 68%; percent inhibition of AR, 3000.0 nM [1, 8]: 86%; pIC50 [1, 8]: 6.52; % inhibition ([2]; Table 21, 500 nM oligonucleotide): 47%
